{"source": "patent US6762174B1", "about": "(priority 1998, dated 2004)", "key": {"[1]": {"conditions": "Taxol 40 mg/kg IV"}, "[2]": {"test": "Paclitaxel toxicity, first study: body weight and mortality", "assay_type": "in vivo, female non-tumor-bearing athymic (NCr-nu) mice", "conditions": "BT 0 mg", "description": "The effect of combining BT with paclitaxel (PAC, or TAXOL™) on the toxicity of paclitaxel was investigated. In a first study, groups of 10 female non-tumor-bearing athymic (NCr-nu) mice were administered paclitaxel i.v. at doses of 50 and 30 mg/kg/dose on a qld×5 schedule, which means once each day for five days. Paclitaxel (PAC) was in 12.5% cremophor/12.5% ethanol/75% saline alone, or in combination with 30 mg/kg BT (first dissolved in saline) and delivered as a single i.v. injection (0.1 cc/10 gm body weight). BT was also administered on a qld×5 schedule. Body weights were measured twice a week and survival data was recorded daily. The study was terminated on day 21.\nWeight loss values reflect the lowest recorded weight, which was on day 7 for all groups. Importantly, there were fewer deaths when BT was coadministered with either 30 mg or 50 mg paclitaxel.\nFor the group receiving 50 mg paclitaxel, the survival difference was statistically significant (log rank=6.41, p=0.0113). There were 9 deaths on day 21 with 50 mg PAC alone, but only 2 deaths when 30 mg BT was administered with 50 mg PAC. When BT was coadministered with 30 mg PAC there was only 1 death on day 21, which was due not to toxicity, but to a technician error. By contrast, there were 2 toxic deaths with 30 mg PAC alone."}, "[3]": {"system": "anti-Pn14 antibodies (Pn14-Tetanus Toxin antigen)", "design": "species or system BALB/c female mice", "conditions": "mouse, in vivo"}, "[4]": {"system": "human hematopoietic progenitor cells (CD34+ cells)", "test": "Blood cell stimulation: CD34+ suspension culture, lineage marker ELISA", "assay_type": "cell-based", "description": "A 96-well-based suspension culture system (Warren et al, Stem Cells 13:167 (1995) for human hematopoietic progenitor cells was used to monitor the commitment and differentiation of CD34+ cells in vitro. Expression of maturation and lineage markers on the cells in culture were measured by ELISA. […] A combination of growth factors was added that stimulates the expression of the appropriate lineage markers. The culture consisted of: IMDM plus 15% FBS, 0.5 ng/ml IL-3, 20 ng/ml SCF, 1 unit/ml EPO, 1 ng/ml GCSF and the indicated concentrations of test compounds. The cells were then fixed with a glutaraldehyde-paraformaldehyde mixture, attaching the cells firmly to the plastic. An ELISA was performed (Warren et al, Stem Cells 13:167 (1995)), using appropriate primary antibodies directed against cell surface markers. The expression of three different lineage markers was measured: CD14 (monocyte), CD15 (neutrophil), and glycophorin A (erythroid)."}, "[5]": {"system": "delayed type hypersensitivity (DTH) response to oxazalone (OX)", "design": "species or system mice", "conditions": "mouse, in vivo"}, "[6]": {"system": "Hybridoma cells (ATCC #CRL-8014, OKT-8)", "test": "Production of monoclonal antibodies from hybridomas (sandwich ELISA)", "assay_type": "cell-based", "conditions": "200 ρg/ml vs control", "description": "Hybridoma cells (ATCC #CRL-8014, OKT-8, secreting an IgG2 anti-human T-cell subset antibody) were growth with or without N-carbobenzoxy-β-alanyl-taurine zinc salt in T25 culture flasks. Cells were inoculated at a density of 10,000 cells/ml and maintained below 500,000 cells/ml in 5 mls of protein-free media containing HyQ-PF-MAB from Hyclone. Aliquots were assayed for Mab production by a sandwich ELISA. Aliquots were diluted to be within the standard range and added to plates precoated with goat anti-mouse IgG by incubating two hours at room temperature. Wells were washed and reacted with diluted supernatants, then washed and detected with peroxidase labeled anti-mouse antibodies."}, "[7]": {"conditions": "Study 2: 1 ug/ml, 1700 cells per well"}}, "note": "Where “and” joins values, the source holds several entries; their conditions need not be identical. Identical values can stand only once. Like-named read-outs stand apart in the source and are kept apart here. Marks after values point to notes of the source that are not given here."}
{"compound": "CC(=O)O[C@H]1C(=O)[C@@]2(C)[C@H]([C@H](OC(=O)c3ccccc3)[C@]3(O)C[C@H](OC(=O)[C@H](O)[C@@H](NC(=O)c4ccccc4)c4ccccc4)C(C)=C1C3(C)C)[C@]1(OC(C)=O)CO[C@@H]1C[C@@H]2O", "note": "[PAC, paclitaxel]", "values": [{"measurement": "Percent Body Weight Loss From Day 0", "setting": "[1]; day 1", "value": 3.8, "unit": "%"}, {"measurement": "Percent Body Weight Loss From Day 0", "setting": "[1]; day 5", "value": 10.7, "unit": "%"}, {"measurement": "Percent Body Weight Loss From Day 0", "setting": "[1]; day 6", "value": 11.0, "unit": "%"}, {"measurement": "Percent Body Weight Loss From Day 0", "setting": "[1]; day 7", "value": 15.2, "unit": "%"}, {"measurement": "Percent Body Weight Loss From Day 0", "setting": "[1]; day 8", "value": 17.2, "unit": "%"}, {"measurement": "Percent Body Weight Loss From Day 0", "setting": "[1]; day 9", "value": 17.5, "unit": "%"}, {"measurement": "Percent Body Weight Loss From Day 0", "setting": "[1]; day 10", "value": 14.6, "unit": "%"}, {"measurement": "Percent Body Weight Loss From Day 0", "setting": "[1]; day 11", "value": 11.8, "unit": "%"}, {"measurement": "Percent Body Weight Loss From Day 0", "setting": "[1]; day 12", "value": 10.4, "unit": "%"}, {"measurement": "Percent Body Weight Loss From Day 0", "setting": "[1]; day 13", "value": 7.8, "unit": "%"}, {"measurement": "Percent Body Weight Loss From Day 0", "setting": "[1]; day 21", "value": "−1.2", "unit": "%"}, {"measurement": "deaths", "setting": "[2]; PAC 30 mg, Day 1", "value": 0}, {"measurement": "mean weight", "setting": "[2]; PAC 30 mg, Day 1", "value": 19, "unit": "gm"}, {"measurement": "% weight change", "setting": "[2]; PAC 30 mg, Day 7", "value": "−26.3", "unit": "%"}, {"measurement": "deaths", "setting": "[2]; PAC 30 mg, Day 7", "value": 1}, {"measurement": "mean weight", "setting": "[2]; PAC 30 mg, Day 7", "value": 14, "unit": "gm"}, {"measurement": "% weight change", "setting": "[2]; PAC 30 mg, Day 10", "value": "−21.1", "unit": "%"}, {"measurement": "deaths", "setting": "[2]; PAC 30 mg, Day 10", "value": 2}, {"measurement": "mean weight", "setting": "[2]; PAC 30 mg, Day 10", "value": 15, "unit": "gm"}, {"measurement": "% weight change", "setting": "[2]; PAC 30 mg, Day 14", "value": "−5.3", "unit": "%"}, {"measurement": "deaths", "setting": "[2]; PAC 30 mg, Day 14", "value": 2}, {"measurement": "mean weight", "setting": "[2]; PAC 30 mg, Day 14", "value": 18, "unit": "gm"}, {"measurement": "% weight change", "setting": "[2]; PAC 30 mg, Day 21", "value": "+21.1%"}, {"measurement": "deaths", "setting": "[2]; PAC 30 mg, Day 21", "value": 2}, {"measurement": "mean weight", "setting": "[2]; PAC 30 mg, Day 21", "value": 23, "unit": "gm"}, {"measurement": "deaths (cummul.)", "setting": "[2]; PAC 50 mg, Day 1", "value": 0}, {"measurement": "mean weight", "setting": "[2]; PAC 50 mg, Day 1", "value": 19, "unit": "gm"}, {"measurement": "% weight change", "setting": "[2]; PAC 50 mg, Day 7", "value": "−31.6", "unit": "%"}, {"measurement": "deaths (cummul.)", "setting": "[2]; PAC 50 mg, Day 7", "value": 1}, {"measurement": "mean weight", "setting": "[2]; PAC 50 mg, Day 7", "value": 13, "unit": "gm"}, {"measurement": "% weight change", "setting": "[2]; PAC 50 mg, Day 10", "value": "−36.8", "unit": "%"}, {"measurement": "deaths (cummul.)", "setting": "[2]; PAC 50 mg, Day 10", "value": 9}, {"measurement": "mean weight", "setting": "[2]; PAC 50 mg, Day 10", "value": 12, "unit": "gm"}, {"measurement": "% weight change", "setting": "[2]; PAC 50 mg, Day 14", "value": "−26.3", "unit": "%"}, {"measurement": "deaths (cummul.)", "setting": "[2]; PAC 50 mg, Day 14", "value": 9}, {"measurement": "mean weight", "setting": "[2]; PAC 50 mg, Day 14", "value": 14, "unit": "gm"}, {"measurement": "% weight change", "setting": "[2]; PAC 50 mg, Day 21", "value": "+10.5%"}, {"measurement": "deaths (cummul.)", "setting": "[2]; PAC 50 mg, Day 21", "value": 9}, {"measurement": "mean weight", "setting": "[2]; PAC 50 mg, Day 21", "value": 21, "unit": "gm"}]}
{"compound": "O=C(CCNC(=O)OCc1ccccc1)NCCOP(=O)(O)O", "note": "[Taurox-BOP, N-carboxybenzoxy-β-alanyl-ethanolamine phosphate]", "values": [{"measurement": "Mean Change in O.D. from pretest, Day 4", "setting": "[3]", "value": 0}, {"measurement": "Mean Change in O.D. from pretest, Day 14", "setting": "[3]", "value": 366}, {"measurement": "Mean Change in O.D. from pretest, Day 14", "setting": "[3]; ip", "value": "877 and 515"}, {"measurement": "Percent difference (relative to control), monocytes", "setting": "[4]; Study 1: 1 ng/ml compound", "value": 18, "unit": "%"}, {"measurement": "Percent difference (relative to control), neutrophils", "setting": "[4]; Study 1: 1 ng/ml compound", "value": 21, "unit": "%"}, {"measurement": "Percent difference (relative to control), red blood cells", "setting": "[4]; Study 1: 1 ng/ml compound", "value": 0, "unit": "%"}, {"measurement": "Percent difference (relative to control), CD34 cells", "setting": "[4]; [7]", "value": 33, "unit": "%"}, {"measurement": "Percent difference (relative to control), RBC", "setting": "[4]; [7]", "value": 55, "unit": "%"}, {"measurement": "Percent difference (relative to control), monocytes", "setting": "[4]; [7]", "value": 9, "unit": "%"}]}
{"compound": "NCCC(=O)NCCS(=O)(=O)O", "note": "[Taurox-S, β-alanyl-taurine]", "values": [{"measurement": "Mean Change in O.D. from pre-boost 10 days after boost with UNCONJUGATED polysaccharide", "setting": "[3]", "value": 204}, {"measurement": "Mean Change in O.D. from pretest, Day 4", "setting": "[3]", "value": 2.9}, {"measurement": "Mean Change in O.D. from pretest, Day 14", "setting": "[3]", "value": 697}, {"measurement": "Mean Change in O.D. from pretest, Day 14", "setting": "[3]; ip", "value": "681 and 671"}, {"measurement": "Percent difference (relative to control), monocytes", "setting": "[4]; Study 1: 1 ng/ml compound", "value": 47, "unit": "%"}, {"measurement": "Percent difference (relative to control), neutrophils", "setting": "[4]; Study 1: 1 ng/ml compound", "value": 55, "unit": "%"}, {"measurement": "Percent difference (relative to control), red blood cells", "setting": "[4]; Study 1: 1 ng/ml compound", "value": 50, "unit": "%"}]}
{"compound": "N-carbobenzoxy-β-alanyl-taurine zinc salt", "values": [{"measurement": "Major DTH at 24 hrs", "setting": "[5]", "value": "50*"}, {"measurement": "Major DTH at 48 hrs.", "setting": "[5]", "value": 50}, {"measurement": "Major DTH at either 24 or 48 hrs.", "setting": "[5]", "value": 60}, {"measurement": "Moderate DTH at 24 hrs", "setting": "[5]", "value": 70}, {"measurement": "response rate, moderate DTH at 24 hrs", "setting": "[5]", "value": "eight of ten"}, {"measurement": "total treated animals with major immune response", "setting": "[5]", "value": 14}, {"measurement": "total treated animals with major response", "setting": "[5]", "value": 21}, {"measurement": "Major DTH at 24 hrs", "setting": "[5]; iv", "value": "20 and 10"}, {"measurement": "Major DTH at 48 hrs.", "setting": "[5]; iv", "value": "20 and 10"}, {"measurement": "Increase of IgG μg/ml", "setting": "[6]", "value": 316, "unit": "%"}, {"measurement": "Increase of IgG ρg/cell", "setting": "[6]", "value": 93, "unit": "%"}]}
